Measured values published in patent US8389721B2, “Solubilized topoisomerase poisons” (Rutgers, The State University of New Jersey, priority 2001, dated 2013).
Read-outs that look alike come from different tables or passages of the source.

Key:
[1] = system: RPMI 8402; assay: MTT-microtiter plate tetrazolinium cytotoxicity assay (Test B); assay type: cell-based, human
Protocol: (§1) Test B. Inhibition of Cell Growth: MTT-Microtiter Plate Tetrazolinium Cytotoxicity Assay (RPMI 8402, CPT-K5, U937, U937/CR Cells)
(§2) The cytotoxicity is determined using the MTT-microtiter plate tetrazolinium cytotoxicity assay (MTA), see Chen A. Y. et al. Cancer Res. 1993, 53, 1332; Mosmann, T. J., J. Immunol. Methods 1983, 65, 55; and Carmichael, J. et al. Cancer Res. 1987, 47, 936. The human lymphoblast RPMI 8402 and its camptothecin-resistant variant cell line, CPT-K5 were provided by Dr. Toshiwo Andoh (Anchi Cancer Research Institute, Nagoya, Japan), see Andoh, T.; Okada, K, Adv. in Pharmacology 1994, 29B, 93. Human U-937 myeloid leukemia cells and U-937/CR cells were described by Rubin et al., J. Biol. Chem., 1994, 269, 2433-2439. The cytotoxicity assay is performed by using 96-well microtiter plates using 2000 cells/well, in […] of growth medium. Cells are grown in suspension at 37° C. in 5% CO2 and maintained by regular passage in RPMI medium supplemented with 10% heat-inactivated fetal bovine serum, L-glutamine (2 mM), penicillin (100 U/mL), and streptomycin (0.1 mg/mL). For determination of IC50, cells are exposed continuously for 3-4 days to varying concentrations of drug, and MTT assays were performed at the end of the fourth day. […] All assays are performed at least twice in 6 replicate wells. All assays are performed under the direction of Dr. L. F. Liu, Department of Pharmacology, The University of Medicine and Dentistry of New Jersey, Robert Wood Johnson Medical School, Piscataway, N.J.

[2] = system: CPT-K5; assay: MTT-microtiter plate tetrazolinium cytotoxicity assay (Test B), camptothecin-resistant variant; assay type: cell-based; conditions: Homo sapiens
Protocol: as §1, §2

[3] = human lymphoblast RPMI 8402 cells, continuous exposure 3-4 days, MTT, read-out: RPMI 8402 [μM] IC50 values
[4] = camptothecin-resistant variant cell line CPT-K5, continuous exposure 3-4 days, MTT, read-out: CPT-K5 IC50 values

| melting point | Compound | also measured |
| --- | --- | --- |
|  | CC[C@@]1(O)C(=O)OCc2c1cc1n(c2=O)Cc2cc3c(CN(C)C)c(O)ccc3nc2-1 [Topotecan] | IC50 [1, 3]: 0.005 µM; IC50 [2, 4]: > 10000 nM |
| 153 to 154 °C | COc1cc2c(cc1OC)-c1cnc3cc4c(cc3c1N(C(C)CN(C)C)C2)OCO4 (stereo not drawn) [Example 18, 8,9-Dimethoxy-2,3-methylenedioxy-5-[2-(N,N-dimethylamino)-1-methylethyl]-5,6-dihydro-dibenzo[c,h]1,6-naphthyridine] |  |
| 262 to 264 °C (dec.) | COc1cc2c(=O)n(CCCN(C)C)c3c4cc5c(cc4ncc3c2cc1OC)OCO5 [Example 11, 8,9-Dimethoxy-2,3-methylenedioxy-5-[3-(N,N-dimethylamino)propyl]-5H-dibenzo[c,h]1,6-naphthyridin-6-one] |  |
| 244 to 246 °C | COc1cc2c(=O)n(CCN3CCN(C)CC3)c3c4cc5c(cc4ncc3c2cc1OC)OCO5 [Example 10, 8,9-Dimethoxy-2,3-methylenedioxy-5-[2-(4-methylpiperazin-1-yl)ethyl]-5H-dibenzo[c,h]1,6-naphthyridin-6-one] |  |
| 255 to 257 °C (dec.) | COc1cc2c(=O)n(CCN3CCCC3)c3c4cc5c(cc4ncc3c2cc1OC)OCO5 [Example 9, 8,9-Dimethoxy-2,3-methylenedioxy-5-[2-(pyrrolidin-1-yl)ethyl]-5H-dibenzo[c,h]1,6-naphthyridin-6-one] |  |
| 235 °C | COc1cc2c(=O)n(CCOCCO)c3c4cc5c(cc4ncc3c2cc1OC)OCO5 [Example 14, 8,9-Dimethoxy-2,3-methylenedioxy-5-[2-(2-hydroxyethoxy)ethyl]-5H-dibenzo[c,h]1,6-naphthyridin-6-one] |  |
|  | CCc1c2c(nc3ccc(OC(=O)N4CCC(N5CCCCC5)CC4)cc13)-c1cc3c(c(=O)n1C2)COC(=O)[C@]3(O)CC [Irinotecan] | IC50 [1, 3]: 0.57 µM; IC50 [2, 4]: > 100000 nM |
| 186 to 187 °C | COc1cc2c(=O)n(C(C)CN(C)C)c3c4cc5c(cc4ncc3c2cc1OC)OCO5 (stereo not drawn) [Example 8, 8,9-Dimethoxy-2,3-methylenedioxy-5-[2-(N,N-dimethylamino)-1-methylethyl]-5H-dibenzo[c,h]1,6-naphthyridin-6-one] |  |
|  | COc1cc2c(=O)n(CCN(C)C)c3c4cc5c(cc4nnc3c2cc1OC)OCO5 [Compound 5, 11,12-dihydro-2,3-dimethoxy-8,9-methylenedioxy-11-[2-(dimethylamino)ethyl]-5,6,11-triazachrysen-12-one] | IC50 [1, 3]: 0.003 µM; IC50 [2, 4]: 1200 nM |
| 270 to 273 °C | COc1cc2c(=O)n(CC3CCCO3)c3c4cc5c(cc4ncc3c2cc1OC)OCO5 (stereo not drawn) [Example 12, 8,9-Dimethoxy-2,3-methylenedioxy-5-(2-tetrahydrofuranyl)methyl-5H-dibenzo[c,h]1,6-naphthyridin-6-one] |  |
| 221 to 223 °C (dec.) | CCN(CC)CCn1c(=O)c2cc(OC)c(OC)cc2c2cnc3cc4c(cc3c21)OCO4 [Example 19, 8,9-Dimethoxy-2,3-methylenedioxy-5-[2-(N,N-diethylamino)ethyl]-5H-dibenzo[c,h]1,6-naphthyridin-6-one] |  |
| 294 to 295 °C | COc1cc2c(=O)n(CCN3CCCCC3)c3c4cc5c(cc4nnc3c2cc1OC)OCO5 [Example 6, 2,3-Dimethoxy-8,9-methylenedioxy-11-[2-(piperidin-1-yl)ethyl]-11H-5,6,11-triaza-chrysen-12-one] |  |
| 300 to 303 °C (dec.) | COc1cc2c(=O)n(CC3CCCO3)c3c4cc5c(cc4nnc3c2cc1OC)OCO5 (stereo not drawn) [Example 4, 2,3-Dimethoxy-8,9-methylenedioxy-11-(2-tetrahydrofuranyl)methyl-11H-5,6,11-triazachrysen-12-one] |  |
|  | CC[C@@]1(O)C(=O)OCc2c1cc1n(c2=O)Cc2cc3ccccc3nc2-1 [Camptothecin] | IC50 ([1]; Homo sapiens, RPMI 8402, read-out: RPMI 8402 [μM] IC50 values): 0.002 µM; IC50 ([2]; CPT-K5, read-out: CPT-K5 IC50 values): 4500 nM |
| 229 °C | COc1cc2c(=O)n(CCN3CCCC3)c3c4cc5c(cc4nnc3c2cc1OC)OCO5 [Example 5, 2,3-Dimethoxy-8,9-methylenedioxy-11-[2-(pyrrolidin-1-yl)ethyl]-11H-5,6,11-triaza-chrysen-12-one] |  |
| 271 to 273 °C (dec.) | COc1cc2c(cc1OC)-c1cnc3cc4c(cc3c1N(CCN(C)C)C2)OCO4 [Example 17, 8,9-Dimethoxy-2,3-methylenedioxy-5-[2-(N,N-dimethylamino)ethyl]-5,6-dihydro-dibenzo[c,h]1,6-naphthyridine] |  |
| 285 to 286 °C | COc1cc2c(=O)n(CCO)c3c4cc5c(cc4ncc3c2cc1OC)OCO5 [Example 13, 8,9-Dimethoxy-2,3-methylenedioxy-5-[2-(hydroxy)ethyl]-5H-dibenzo[c,h]1,6-naphthyridin-6-one] |  |
